In brackets after ≈: the same amount, converted by molar mass. Where two headings read alike, the source gives them in different places.
What was measured:
MDA-MB-231 = test: Cytotoxicity in cancer cell line MDA-MB-231; assay type: cell-based
From the text: (§1) Further cytotoxicity studies show potential for efficacy as […]. Table 2, below, provides IC50 data relating to both a cancer cell line and E. coli minimum inhibitory concentration (MIC).

σ (DOR) opioid receptor = σ (DOR) opioid receptor (Homo sapiens, UniProt P41143); test: CNS receptor inhibition, Delta opioid receptor; assay type: binding
Experimental: (§2) In an illustrative embodiment of the present invention, gliotoxin and Formula 1b, were evaluated for activity of various receptors. Turning to Table 1, inhibitory data is provided for various receptors found in the CNS, including H1 and opioid receptors μ (MOR), […], and κ (KOR). Inhibition data is provided as inhibitor constant, Ki, is the concentration required to produce half-maximum inhibition. This quantitative measure indicates how much of a particular drug or other substance (inhibitor) is needed to inhibit a given biological process (or component of a process, i.e. an enzyme, cell, cell receptor or microorganism) by half. The values are typically expressed as molar (micro- and nano-) concentrations.

κ (KOR) opioid receptor = κ (KOR) opioid receptor (Homo sapiens, UniProt P41145); test: CNS receptor inhibition, Kappa opioid receptor; assay type: binding
Experimental: as §2

CNS Receptor = CNS Receptor binding (profile)
Experimental: as §2

E. Coli = test: E. coli minimum inhibitory concentration; assay type: cell-based
From the text: as §1

μ (MOR) opioid receptor = μ (MOR) opioid receptor (Homo sapiens, UniProt P35372); test: CNS receptor inhibition, Mu opioid receptor; assay type: binding
Experimental: as §2

HUVEC cells = test: Angiogenesis study, tube formation in HUVEC; assay type: cell-based; details: 100 nM of drug treatment
Experimental: Angiogenesis studies were performed using HUVEC cells (see FIGS. 6A-6C). Tube formation in HUVEC in presence of 100 nM of drug treatment.

bEnd.3 cells = test: Blood-brain barrier membrane permeability in in-vitro monolayer of bEnd.3 cells; assay type: in vitro ADME; details: in 30 minutes
From the text: FIG. 4 provides permeability data for the blood-brain barrier (BBB) of various compounds, including gliotoxin and Formula 1b. Membrane permeability increases linearly as a function of time.

H1 receptor = H1 receptor (Homo sapiens, UniProt P35367); test: CNS receptor inhibition, H1 receptor; assay type: binding
Experimental: as §2

H1 receptor, sequence (P35367 whole entry): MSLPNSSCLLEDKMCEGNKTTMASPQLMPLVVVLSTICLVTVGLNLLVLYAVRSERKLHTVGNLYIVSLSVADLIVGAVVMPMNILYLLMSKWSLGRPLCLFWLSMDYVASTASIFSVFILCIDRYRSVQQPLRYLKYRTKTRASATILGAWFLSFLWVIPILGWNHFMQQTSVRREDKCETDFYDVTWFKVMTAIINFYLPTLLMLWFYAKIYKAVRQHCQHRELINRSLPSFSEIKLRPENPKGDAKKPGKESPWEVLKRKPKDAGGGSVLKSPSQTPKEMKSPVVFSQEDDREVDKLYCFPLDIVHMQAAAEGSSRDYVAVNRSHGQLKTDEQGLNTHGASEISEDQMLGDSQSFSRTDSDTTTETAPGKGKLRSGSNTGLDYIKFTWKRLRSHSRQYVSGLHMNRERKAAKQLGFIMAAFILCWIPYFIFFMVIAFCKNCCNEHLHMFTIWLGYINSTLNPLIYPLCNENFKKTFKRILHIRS
μ (MOR) opioid receptor, sequence (P35372 whole entry): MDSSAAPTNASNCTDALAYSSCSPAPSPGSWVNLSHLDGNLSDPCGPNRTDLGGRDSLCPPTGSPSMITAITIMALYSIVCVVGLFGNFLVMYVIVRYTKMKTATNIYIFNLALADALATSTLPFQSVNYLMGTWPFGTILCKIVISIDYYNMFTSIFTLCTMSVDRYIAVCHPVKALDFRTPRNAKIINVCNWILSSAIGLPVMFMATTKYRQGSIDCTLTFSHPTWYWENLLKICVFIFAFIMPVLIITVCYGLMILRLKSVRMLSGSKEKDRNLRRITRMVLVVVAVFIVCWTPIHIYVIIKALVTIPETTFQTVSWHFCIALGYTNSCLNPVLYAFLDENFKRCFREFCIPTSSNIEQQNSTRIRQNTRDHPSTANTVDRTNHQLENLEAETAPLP
σ (DOR) opioid receptor, sequence (P41143 whole entry): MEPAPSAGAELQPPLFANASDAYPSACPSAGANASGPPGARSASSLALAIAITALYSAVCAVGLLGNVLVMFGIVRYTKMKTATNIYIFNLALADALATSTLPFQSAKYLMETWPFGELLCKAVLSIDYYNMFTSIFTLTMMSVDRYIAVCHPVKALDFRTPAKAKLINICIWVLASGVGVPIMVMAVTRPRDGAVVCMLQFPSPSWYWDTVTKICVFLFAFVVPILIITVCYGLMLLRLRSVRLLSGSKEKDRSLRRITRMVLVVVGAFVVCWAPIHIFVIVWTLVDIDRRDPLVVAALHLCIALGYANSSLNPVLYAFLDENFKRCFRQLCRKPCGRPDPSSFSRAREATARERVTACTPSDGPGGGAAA
κ (KOR) opioid receptor, sequence (P41145 whole entry): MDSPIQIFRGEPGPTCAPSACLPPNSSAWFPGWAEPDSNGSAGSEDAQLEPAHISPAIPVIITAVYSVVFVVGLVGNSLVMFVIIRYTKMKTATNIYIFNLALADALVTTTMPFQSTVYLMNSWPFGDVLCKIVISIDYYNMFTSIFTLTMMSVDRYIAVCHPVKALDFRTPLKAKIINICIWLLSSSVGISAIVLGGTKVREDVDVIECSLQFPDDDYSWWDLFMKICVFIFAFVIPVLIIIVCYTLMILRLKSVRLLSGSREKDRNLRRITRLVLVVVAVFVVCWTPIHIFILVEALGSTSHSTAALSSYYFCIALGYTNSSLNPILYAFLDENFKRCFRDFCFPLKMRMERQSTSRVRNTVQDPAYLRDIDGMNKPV

CCc1cccc2c1N1C(=O)CC(C)C(=O)C1C2 (stereo not drawn) [Formula 1b, 4-ethyl-8-methyl-7,8,9a,10-tetrahydropyrido[1,2-α]indole-6,9-dione]
IC50 (MDA-MB-231): > 100000 nM | Inhibition (%) (σ (DOR) opioid receptor): 97.4% | Inhibition (%) (κ (KOR) opioid receptor): 99.3% | CNS Receptor binding (CNS Receptor): Opioid Antagonist | E. Coli MIC (E. Coli): Not Active | Inhibition (%) (μ (MOR) opioid receptor): 97.8% | Inhibition of tube formation (HUVEC cells): no inhibition was observed | ability to cross the BBB (bEnd.3 cells): 80%

CN1C(=O)[C@]23CC4=CC=C[C@H](O)[C@H]4N2C(=O)[C@@]1(CO)SS3 [Gliotoxin, reference compound]
IC50 (MDA-MB-231; Homo sapiens): 1400 nM | CNS activity, inhibition of the H1 receptor (FIG. 7) (H1 receptor): partial inhibition | Inhibition (%) (H1 receptor; H1): 61% | CNS Receptor binding (CNS Receptor): H1 Receptor Antagonist | MIC (E. Coli; Escherichia coli): 32 µg/mL (≈ 98 µM) | Inhibition of tube formation (HUVEC cells): Inhibition of tube formation was observed

From patent publication US10787456B2 (priority 2018, dated 2020)
